# Measurements as given in patent publication US7767240B2, “Microbiological control in poultry processing” (priority 2001, dated 2010).
# Legend:
# [1] = test system: planktonic HPC (heterotrophic plate count) bacteria; experiment: HPC bacteria eradication in planktonic form, PVC sampling pipes; assay type: cell-based
# From the text: In another group of tests, the results of which are depicted in FIGS. 5 through 10, several bromine-based microbiocides of this invention were utilized in tests illustrating their effectiveness in eradicating or controlling Heterotrophic Plate Count bacteria i.e., a mixture of naturally-occurring pathogenic bacteria of various unidentified species. These bacteria were challenged both in the form of biofilms and in planktonic form.
# The experimental conditions utilized in these tests involved use of an apparatus consisting of three parallel transparent PVC sampling pipes. These pipes were used for collection of biofilm (i.e., sessile or surface attached) bacteria samples; one as control pipe, one for a relatively low biocide concentration and the third for a higher biocide concentration. The biocide challenge in each case was divided into three phases. First was a 14-day inoculation. Next was a 48-hour disinfection period. Finally a 2-week recovery period was provided. The biocide under test was slug-dosed and during the first hour of exposure, the concentration was adjusted to achieve the desired concentration level.
# The source of the naturally-grown heterotrophic plate count (HPC) bacteria was sediment and associated water collected from the recirculating hot water system of a hospital. […]
# [2] = test system: Shigella sonnei ATCC 9290; experiment: Bacteria count per bird over 20-day storage (Example 4); assay type: cell-based; details: pH 8
# Method: A study was conducted to determine the effect of Clorox® bleach, and 1,3-dibromo-5,5-dimethylhydantoin (DBDMH) on carcass bacteria residual after 1.5 hour in a chill tank solution and spoilage 20-day shelf life longevity (caused by bacteria contamination). Tests were conducted at pH 8 (adjusted by trisodium phosphate). Skin pigmentation (Minolta Color Meter L value or Lightness, a value or redness and b value or yellowness) were determined before and post-processing.
# In general the study involved normal processing of 56-day-old birds, immersing carcasses first in a warm bath containing 10^4 per mL Escherichia coli, 10^4 per mL Salmonella enteritidis, 10^4 per mL Pseudomonas aeruginosa, 10^4 per mL Campylobacter jejuni, and 10^4 per mL spoilage bacteria each from […] strains (Listeria monocytogenes and Shigella sonnei). Carcass were then immersed in a chill tank “soup”, containing normal organic fluids (blood, fat, skin, and meat particles) and containing various disinfectants (termed test materials).
# A DBDMH stock solution and test solutions, a bacteria stock solution, and a “chicken soup” were prepared as in Example 3. In addition, the bacterial broth treatments, the whole bird wash sampling procedure, and the methodologies used for quantitative or qualitative determinations for bacterial organisms were conducted as in Example 3.
# In greater detail the trial events and experimental design used in this group of tests were as follows: • a) Test microorganisms used were: • Escherichia coli ATCC 11229 • Pseudomonas aeruginosa ATCC 15442 • Salmonella enteritidis ATCC 13076 • Shigella sonnei ATCC 9290 • Listeria monocytogenes ATCC 7644 • Campylobacter jejuni ATCC 29428 • b) Test Procedure: All test strains were grown individually at 35° C. for 24 hours in the media specified in Table 12. Cells were harvested by centrifugation at 10,000×g for 10 minutes and washed twice with Butterfield's Phosphate Buffer (BPB of pH 7.2). Cells were resuspended in BPB to obtain a cell suspension of approximately 1.0×10^8 CFU/mL for each microorganism. The target inoculum levels were approximately 10^6 CFU/mL in the final test solutions. In the cases of S. enteritidis and P. aeruginosa the species were washed by pouring into prepared sterile centrifuge tubes with cheesecloth filters. The culture was then pelleted and washed using above techniques and repeated 3 times. • c) The birds (56 days old) were processed under normal commercial conditions. • d) The bacteria were added to a large batch of the “chicken soup”, and then aliquots of the resultant mixture were distributed equally among the chill waters used for each test. Then the particular disinfectant composition under test was added to one of the chill waters. […]
compound,measurement,setting,value
"CC1(C)C(=O)N(Br)C(=O)N1Br [DBDMH, 1,3-dibromo-5,5-dimethylhydantoin]",planktonic HPC bacteria eradicated,"[1]; 0.5 ppm as bromine, within three hours",~99%
same,planktonic HPC bacteria eradicated,"[1]; 5 ppm as bromine, within twelve hours",~99.99%
same,"average bacteria count per bird, S. sonnei","[2]; Day 0, 10 ppm",845 per bird
same,"average bacteria count per bird, S. sonnei","[2]; Day 0, 20 ppm",8 per bird
same,"average bacteria count per bird, S. sonnei","[2]; Day 2, 10 ppm",962 per bird
same,"average bacteria count per bird, S. sonnei","[2]; Day 2, 20 ppm",12 per bird
same,"average bacteria count per bird, S. sonnei","[2]; Day 4, 10 ppm",1101 per bird
same,"average bacteria count per bird, S. sonnei","[2]; Day 4, 20 ppm",19 per bird
same,"average bacteria count per bird, S. sonnei","[2]; Day 6, 10 ppm",1288 per bird
same,"average bacteria count per bird, S. sonnei","[2]; Day 6, 20 ppm",37 per bird
same,"average bacteria count per bird, S. sonnei","[2]; Day 8, 10 ppm",1604 per bird
same,"average bacteria count per bird, S. sonnei","[2]; Day 8, 20 ppm",76 per bird
same,"average bacteria count per bird, S. sonnei","[2]; Day 10, 10 ppm",1954 per bird
same,"average bacteria count per bird, S. sonnei","[2]; Day 10, 20 ppm",156 per bird
same,"average bacteria count per bird, S. sonnei","[2]; Day 12, 10 ppm",2347 per bird
same,"average bacteria count per bird, S. sonnei","[2]; Day 12, 20 ppm",323 per bird
same,"average bacteria count per bird, S. sonnei","[2]; Day 14, 10 ppm",2848 per bird
same,"average bacteria count per bird, S. sonnei","[2]; Day 14, 20 ppm",657 per bird
same,"average bacteria count per bird, S. sonnei","[2]; Day 16, 10 ppm",3513 per bird
same,"average bacteria count per bird, S. sonnei","[2]; Day 16, 20 ppm",1286 per bird
same,"average bacteria count per bird, S. sonnei","[2]; Day 18, 10 ppm",4242 per bird
same,"average bacteria count per bird, S. sonnei","[2]; Day 18, 20 ppm",1604 per bird
same,"average bacteria count per bird, S. sonnei","[2]; Day 20, 10 ppm",4941 per bird
same,"average bacteria count per bird, S. sonnei","[2]; Day 20, 20 ppm",1834 per bird
